Here are results for ten compounds from patent publication US4278797A, “Intermediates to phenylmorphans and method of preparation thereof” (priority 1980, dated 1981).

Read-outs that look alike come from different tables or passages of the source.

The conditions of data set [1]: compared with morphine or with 5-(3-hydroxyphenyl)-2-methylmorphan; literature; cited from earlier work.
The conditions of data set [2]: literature; cited from earlier work.
In another data set the test system is Rat tail jerk. In words: rat-tail jerk assay (light beam or heat source applied to the tail). It is filed as in vivo. As to conditions: dose causing a two second delay in tail removal compared to control animals receiving no drug; for ED (2 s delay): Rattus norvegicus, sc, subcutaneous, read-out: Rat tail jerk subcutaneous injection ED2 seconds. The protocol: The phenylmorphan derivatives provided by this invention are useful as analgesics in the treatment of pain in animals suffering from pain and in need of treatment. […] One such test is the rat-tail jerk assay. In this test, a light beam or heat source is applied to the tail of a rat. The pain threshold of the animal is measured by the latency of the rat to remove its tail from the pain source. Column 2 in the following table presents the effective subcutaneous dose in mg/kg of a number of the compounds of this invention which causes a two second delay (ED2 sec) in tail removal compared to the control animals receiving no drug.

The subject of another data set is Mouse writhing. In words: mouse writhing test (intraperitoneal acetic acid). As to conditions: dose reducing writhing by fifty percent; for ED50: Mus musculus. It is filed as in vivo, mice. The text has this: In another test designed to show analgesic activity, mice are given an intraperitaneal injection of acetic acid which causes the animals to writh. An effective analgesic is one that reduces the writhings. Column 3 of the following table presents the effective sucutaneous and oral doses in mg/kg of a compound of this invention required to reduce the writing in test animals by fifty percent (ED50).
Background: In writhing tests, fewer writhes than in controls are read as antinociception.

[3] abbreviates: sc, subcutaneous, read-out: Mouse writhing s.c. ED50.
[4] abbreviates: oral, read-out: Mouse writhing oral ED50.

As for `CN1CCC2(c3cccc(O)c3)CCCC1C2` (racemic) [racemic 5-(3-hydroxyphenyl)-2-methylmorphan, 5-(3-hydroxyphenyl)-2-methylmorphan], in data set [1], the analgesic potency result is listed as “nearly equivalent to that of morphine”.

Turning to `CN1CCC2(c3cccc(O)c3)CCCC1C2` (single isomer, unassigned; (-)) [(-)-isomer of 5-(3-hydroxyphenyl)-2-methylmorphan, (-)-5-(3-hydroxyphenyl)-2-methylmorphan], in data set [1], the analgesic potency result is reported as “morphine-like potency”. Further, the physical dependence capacity entry in data set [2] is “no physical dependence capacity”.

Turning to `CC1CC2CC(c3cccc(O)c3)(C1)CC(C)N2C` (stereo not drawn) [2,3,7-Trimethyl-5-(3-hydroxyphenyl)morphan], the ED (2 s delay) in the data set on Rat tail jerk is 0.5 mg/kg. Also, the results for the ED50 in the data set on Mouse writhing (setting [3]) and with Mouse writhing (setting [4]) were 0.66 mg/kg and 14 mg/kg, respectively.

For the compound `COc1cccc(C23CC(C)CC(C2)N(C)C(C)C3)c1` (stereo not drawn) [2,3,7-Trimethyl-5-(3-methoxyphenyl)morphan], in the data set with Rat tail jerk, the ED (2 s delay) is 20 mg/kg. The ED50 came to 7.8 mg/kg in the data set with Mouse writhing (setting [3]) and 22 mg/kg in the data set on Mouse writhing (setting [4]).

As for `CC1CC2(c3cccc(O)c3)CCCC(C2)N1C` (stereo not drawn) [2,3-dimethyl-5-(3-hydroxyphenyl)morphan, 2,3-Dimethyl-5-(3-hydroxyphenyl)morphan], the ED (2 s delay) in the data set on Rat tail jerk amounted to 2 mg/kg. For the same compound, the ED50 with Mouse writhing (setting [3]) turned out to be 2 mg/kg; in the data set with Mouse writhing (setting [4]), 23 mg/kg.

Take `COc1cccc(C23CCCC(C2)N(C)C(C)C3)c1` (stereo not drawn) [2,3-dimethyl-5-(3-methoxyphenyl)morphan, 2,3-Dimethyl-5-(3-methoxyphenyl)morphan]: in the data set with Rat tail jerk, the “Rat tail jerk subcutaneous injection ED2 seconds” value came out at 15.0 mg/kg. Also, the “Mouse writhing oral ED50” value in the data set with Mouse writhing (oral) came to 17.0 mg/kg. Further, the “Mouse writhing s.c. ED50” value in the data set with Mouse writhing (subcutaneous) was 13.0 mg/kg.

Consider `CC1CC2CC(c3cccc(O)c3)(CCN2C)C1` (stereo not drawn) [2,7-dimethyl-5-(3-hydroxyphenyl)morphan, 2,7-Dimethyl-5-(3-hydroxyphenyl)morphan], for which the ED (2 s delay) in the data set on Rat tail jerk came to 0.5 mg/kg. Further, the values for the ED50 with Mouse writhing (setting [3]) and in the data set on Mouse writhing (setting [4]) were 0.72 mg/kg and 28.5 mg/kg, respectively.

In the case of `COc1cccc(C23CCN(C)C(CC(C)C2)C3)c1` (stereo not drawn) [2,7-dimethyl-5-(3-methoxyphenyl)morphan, 2,7-Dimethyl-5-(3-methoxyphenyl)morphan], in the data set with Rat tail jerk, the ED (2 s delay) came to 10 mg/kg. Moreover, the median effective dose (ED50) with Mouse writhing (setting [3]) was 3.5 mg/kg; in the data set on Mouse writhing (setting [4]) it was 28.5 mg/kg.

For `CN1CCC2(c3cccc(O)c3)CCCC1C2` (stereo not drawn) [2-methyl-5-(3-hydroxyphenyl)-morphan, 2-Methyl-5-(3-hydroxyphenyl)morphan], the ED (2 s delay) with Rat tail jerk came to 1 mg/kg. Also, the ED50 stood at 1.3 mg/kg with Mouse writhing (setting [3]) and 29 mg/kg in the data set with Mouse writhing (setting [4]).

Take `COc1cccc(C23CCCC(C2)N(C)CC3)c1` (stereo not drawn) [2-methyl-5-(3-methoxyphenyl)-morphan, 2-Methyl-5-(3-methoxyphenyl)morphan]: in the data set with Rat tail jerk, the ED (2 s delay) was 10 mg/kg. Besides, the values for the ED50 in the data set with Mouse writhing (setting [3]) and in the data set on Mouse writhing (setting [4]) were 9.6 mg/kg and 27.5 mg/kg, respectively.

A word on the ED50: it is the dose that gives a 50% effect, or the effect in half of the subjects.
